Data taken from patent US6380262B1, “5-membered ring compounds” (Takara Shuzo Co., Ltd., priority 1998, dated 2002).
Read-outs that look alike come from different tables or passages of the source. Numbered stars: 1 amine (or outer) side, 2 acyl side, 3 side chain; on linkers, the order of the positions; unused ones are H or OH. Bridge positions count the residues as written; N and C are the ends. Square brackets hold non-standard residues; d marks the D form. Peptide text beside a SMILES is read from it. I, II: the chains in the order shown. Actinocin(9to1) = Cc1c2oc3c(C)ccc(C(=O)[*:1])c3nc-2c(C(=O)[*:2])c(N)c1=O; NMeV = CN[C@H](C(=O)O)C(C)C; Sar = CNCC(=O)O

Assays:
[1] = single oral administration to a rat (death); type: in vivo; details: single dosage of 1000 mg/kg
Method: No toxicity is observed when a physiologically effective amount of the compound of the present invention or an optical isomer thereof, or a salt thereof is administered.

[2] = test system: human influenza virus A1/FM/1/47 (ATCC VR-97); test: therapeutic effect in mice infected with influenza virus; type: in vivo, BALB/c mice; details: control 4 out of 11 died
Method: (24) Therapeutic effects of cyclopentenone and 2-hydroxy-4-glutathion-S-yl-2-cyclopenten-1-one were examined by conducting experiments in which mice were infected with influenza virus.
Each of 4 weeks old female BALB/c mice was intranasally infected with 1×10^4 FFU of human influenza virus A1/FM/1/47 (ATCC VR-97) which had been propagated in a hen's egg.
Immediately after the infection with virus, single dose of 1 mg/kg of cyclopentenone, or 3 mg/kg or 30 mg/kg of 2-hydroxy-4-glutathion-S-yl-2-cyclopenten-1-one was intraperitoneally administered to the mouse infected with influenza virus.
Phosphate buffered saline was administered to control mice.
As a result, 4 out of 11 mice in the control group died by day 16. On the other hand, the numbers of dead mice were only 1 out of 11, 1 out of 11 and 1 out of 10 for the groups administered with 1 mg/kg of cyclopentenone, 3 mg/kg of 2-hydroxy-4-glutathion-S-yl-2-cyclopenten-1-one and 30 mg/kg of 2-hydroxy-4-glutathion-S-yl-2-cyclopenten-1-one, respectively.

[3] = test system: HL-60 (ATCC CCL-240) cells; test: antiproliferation activity against tumor cells and apoptosis induction, MTT measurement system and optical microscope; type: cell-based, human; details: for induction of apoptosis (apoptosis corpuscles under an optical microscope): HL-60, 96-well plate culture
Method: (1) 100 μl of a suspension containing HL-60 (ATCC CCL-240) cells in RPMI-1640 medium (Nippon Suisan Kaisha) containing 10% fetal calf serum (Gibco) which had been treated at 56° C. for 30 minutes at a concentration of 5×10^4 cells/ml was dispensed into each well of a 96-well microtiter plate. 10 μl of one of 2-fold serial dilutions with water of 8.3 mM hexanoyl GM solution in 25 mM Tris-HCl buffer was added to the well of the plate. The plate was incubated at 37° C. for 48 hours in the presence of 5% CO2. After the cells were examined under an optical microscope, 10 μl of 5 mg/ml 3-(4,5-dimethylthiazol-2-yl)-2,5-diphenyltetrazolium bromide (MTT; Sigma) solution in phosphate buffered saline was added to the well. The plate was incubated for additional 4 hours. 100 μl of 2-propanol containing 0.04 N HCl was added to the well, the mixture was stirred, and the absorbance at 590 nm was measured.
(2) 10 μl of one of 2-fold serial dilutions with 70% aqueous ethanol solution of 19 mM di-t-butyl GD solution in 70% aqueous ethanol solution was added to each well of a 96-well microtiter plate and air-dried. 100 μl of HL-60 suspension was then dispensed as described above. An apoptosis-inducing activity and an antiproliferation activity against tumor cells were examined using a measurement system using MTT.

HL-60 cells [4] = test: viability by Trypan Blue staining (Viability50); type: cell-based; details: Homo sapiens, read-out: Viability50 (concentration that results in a viability of 50%)
Method: (§1) (3) HL-60 cells were cultured at 37° C. in RPMI 1640 medium (Bio Whittaker) containing 10% fetal calf serum (JRH) which had been treated at 56° C. for 30 minutes and suspended in RPMI 1640 medium at a concentration of 2.5×10^5 cells/5 ml.
(§2) 10 μl of one of appropriate dilutions of the hexanoyl GM solutions in 20 mM Tris-HCl buffer or the di-t-butyl GD solution in 70% aqueous ethanol solution was added to 5 ml of the suspension. The mixtures were incubated at 37° C. for 24 hours in the presence of 5% CO2. 10 μl of aqueous actinomycin D (Sigma) solution (0.5 mg/ml), which is known as a reagent that induces apoptosis, was used in place of the sample and the mixture was incubated under the same conditions for confirmation.
Furthermore, a portion of the cells cultured for 24 hours as described above was stained with 0.4% Trypan Blue and examined under an optical microscope. The number of viable cells which were not stained and the number of dead cells which were stained blue were counted. The concentration of each of the samples that results in a viability of 50% (Viability50 μM) was determined. As a result, Viability50 for hexanoyl GM was 9.22 μM and that for di-t-butyl GD was 46.3 μM.

topoisomerase II = biological target: T1, topoisomerase II (Homo sapiens, UniProt P11388); test: topoisomerase II inhibition, pBR322 DNA relaxation on agarose gel; type: biochemical
T1 construct: purchased TopoGEN
Method: (§3) (1) 2 μl of topoisomerase II (TopoGEN; 2 units/μl), 2 μl of 10-fold concentrated buffer [0.5 M Tris-HCl (pH 8.0), 1.2 M KCl, 0.1 M MgCl2, 5 mM adenosine triphosphate, 5 mM dithiothreitol], 2 μl of 0.1% bovine serum albumin (Takara Shuzo), 11 μl of distilled water and 2 μl of distilled water (control) or 2 μl of one solutions of hexanoyl GM adjusted to varying concentrations with water were mixed together. 1 μl of 0.25 μg/μl pBR322 DNA (Takara Shuzo) was added thereto. The resulting mixture was reacted at 37° C. After reacting for 30 minutes, 2 μl of an aqueous solution containing 1% sodium dodecyl sulfate, 50% glycerol and 0.02% Bromophenol Blue was added thereto to stop the reaction.
(§4) 20 μl of the reaction mixture was applied to 1% agarose gel prepared using agarose L03 (Takara Shuzo) and TAE buffer [40 mM Tris, 5 mM sodium acetate, 1 mM ethylenediaminetetraacetic acid disodium salt; adjusted to pH 7.8 using acetic acid] and electrophoresed in TAE buffer. After electrophoresis, the gel was soaked in a 1 μg/ml aqueous ethidium bromide solution. The gel was exposed to ultraviolet rays to visualize the electophoretic pattern of DNA.

topoisomerase I = biological target: T2, topoisomerase I (Homo sapiens, UniProt P11387); test: topoisomerase I inhibition, pBR322 DNA relaxation on agarose gel; type: biochemical; details: topoisomerase I (TopoGEN), 37° C., 30 minutes
T2 construct: purchased TopoGEN
T2 sequence (P11387 1-765): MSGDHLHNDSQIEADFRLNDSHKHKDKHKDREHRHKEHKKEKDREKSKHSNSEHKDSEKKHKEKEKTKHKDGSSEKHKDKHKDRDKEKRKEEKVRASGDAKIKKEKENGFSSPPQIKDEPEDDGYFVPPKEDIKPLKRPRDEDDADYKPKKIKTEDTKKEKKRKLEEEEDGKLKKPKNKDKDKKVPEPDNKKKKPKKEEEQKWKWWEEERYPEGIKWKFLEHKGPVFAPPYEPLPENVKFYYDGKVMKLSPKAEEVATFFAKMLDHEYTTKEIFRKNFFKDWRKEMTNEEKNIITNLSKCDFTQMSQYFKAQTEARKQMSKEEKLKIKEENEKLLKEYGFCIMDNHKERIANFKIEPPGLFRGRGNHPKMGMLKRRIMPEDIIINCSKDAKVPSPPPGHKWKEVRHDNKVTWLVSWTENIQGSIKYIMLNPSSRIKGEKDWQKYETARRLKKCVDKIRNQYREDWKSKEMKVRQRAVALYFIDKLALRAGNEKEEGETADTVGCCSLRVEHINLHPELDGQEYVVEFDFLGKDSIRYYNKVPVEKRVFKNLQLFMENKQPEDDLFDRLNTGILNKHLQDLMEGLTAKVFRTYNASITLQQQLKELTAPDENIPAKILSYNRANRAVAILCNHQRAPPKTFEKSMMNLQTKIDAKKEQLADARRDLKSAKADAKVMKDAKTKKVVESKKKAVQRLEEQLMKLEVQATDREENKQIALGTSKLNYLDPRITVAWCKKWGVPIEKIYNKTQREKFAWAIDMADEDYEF
Method: as §3
as §4, with “The gel was exposed to ultraviolet rays to visualize the electophoretic pattern of DNA.” left out
(2) The activity of inhibiting topoisomerase I of hexanoyl GM was determined as described in Example 3-(1) except that topoisomerase I (TopoGEN; 0.01 unit/μl) was used in place of topoisomerase II and a solution containing 100 mM Tris-HCl (pH 7.9), 10 mM EDTA, 1 mM spermidine and 50% glycerol was used as 10-fold concentrated buffer.

[5] = single oral administration to a mouse (death); type: in vivo; details: single dosage of 100 mg/kg
HL-60 cells [6] = test: measurement of apoptotic cells using FACScan; type: cell-based, human; details: HL-60, 24 hours; actinomycin D 10 μl of 0.5 mg/ml in 5 ml
Method: as §1, §2
(§5) Measurement of apoptotic cells using FACScan as described in Saibo Kogaku, Bessatsu (Cell Technology, Suppl.) Jikken Protocol Series: Apoptosis Jikken Protocol (Experimental Protocol Series: Experimental Protocols for Apoptosis) (Shujun-sha) pp. 129-130 and analysis of DNA fragmentation as described in Bio Manual UP Series: Saishin Apoptosis Jikken-ho (Bio Manual UP Series: Current Experimental Methods for Apoptosis) (Yodo-sha) pp. 61-63 were carried out using cells cultured in the same manner as that described above.

HL-60 cells [7] = test: analysis of DNA fragmentation; type: cell-based, human; details: HL-60, 24 hours; actinomycin D 10 μl of 0.5 mg/ml in 5 ml
Method: as §1, §2, §5

T1 sequence (P11388 whole entry): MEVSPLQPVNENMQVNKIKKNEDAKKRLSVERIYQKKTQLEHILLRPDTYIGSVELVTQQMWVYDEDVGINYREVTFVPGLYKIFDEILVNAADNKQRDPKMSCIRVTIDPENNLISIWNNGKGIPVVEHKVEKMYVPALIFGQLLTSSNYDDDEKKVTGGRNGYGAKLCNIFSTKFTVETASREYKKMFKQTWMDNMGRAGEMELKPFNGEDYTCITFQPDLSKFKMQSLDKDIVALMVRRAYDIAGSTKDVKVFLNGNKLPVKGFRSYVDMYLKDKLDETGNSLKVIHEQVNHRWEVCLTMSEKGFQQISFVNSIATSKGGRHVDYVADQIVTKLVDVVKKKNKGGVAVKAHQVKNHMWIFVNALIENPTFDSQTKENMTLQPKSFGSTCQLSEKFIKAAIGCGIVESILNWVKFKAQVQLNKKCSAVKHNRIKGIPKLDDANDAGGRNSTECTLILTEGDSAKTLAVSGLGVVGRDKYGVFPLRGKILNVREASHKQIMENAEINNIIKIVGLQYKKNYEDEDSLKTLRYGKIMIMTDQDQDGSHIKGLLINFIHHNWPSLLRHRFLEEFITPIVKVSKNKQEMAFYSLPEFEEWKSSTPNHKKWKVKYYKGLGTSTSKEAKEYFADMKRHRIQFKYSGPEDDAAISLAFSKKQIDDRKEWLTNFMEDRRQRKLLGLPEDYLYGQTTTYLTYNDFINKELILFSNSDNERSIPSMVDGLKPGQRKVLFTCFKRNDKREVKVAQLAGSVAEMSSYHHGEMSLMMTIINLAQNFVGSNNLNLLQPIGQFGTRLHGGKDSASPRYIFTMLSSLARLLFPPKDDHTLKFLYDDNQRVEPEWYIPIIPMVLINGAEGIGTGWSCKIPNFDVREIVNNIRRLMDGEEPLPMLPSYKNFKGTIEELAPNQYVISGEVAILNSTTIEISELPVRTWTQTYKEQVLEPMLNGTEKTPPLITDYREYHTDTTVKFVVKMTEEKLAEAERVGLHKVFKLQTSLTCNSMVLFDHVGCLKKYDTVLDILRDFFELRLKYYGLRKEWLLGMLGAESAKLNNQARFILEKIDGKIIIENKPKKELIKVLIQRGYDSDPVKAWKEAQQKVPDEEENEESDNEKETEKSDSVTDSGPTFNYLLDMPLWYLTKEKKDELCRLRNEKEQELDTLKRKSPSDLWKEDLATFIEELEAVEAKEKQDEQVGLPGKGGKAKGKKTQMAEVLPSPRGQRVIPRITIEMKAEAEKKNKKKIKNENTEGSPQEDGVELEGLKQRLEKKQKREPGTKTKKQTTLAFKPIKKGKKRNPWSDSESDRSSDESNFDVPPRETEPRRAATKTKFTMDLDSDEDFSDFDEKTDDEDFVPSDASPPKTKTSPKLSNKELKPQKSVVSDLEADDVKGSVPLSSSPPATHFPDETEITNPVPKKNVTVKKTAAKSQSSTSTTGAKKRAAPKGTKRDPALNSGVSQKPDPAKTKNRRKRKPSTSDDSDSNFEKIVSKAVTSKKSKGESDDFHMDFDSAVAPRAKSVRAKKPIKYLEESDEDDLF

In the case of `N[C@@H](CCC(=O)N[C@@H](CSC1C=C(O)C(=O)C1)C(=O)NCC(=O)O)C(=O)O` (stereo partly drawn) [2-hydroxy-4-glutathion-S-yl-2-cyclopenten-1-one], the “death after single oral administration” value [1] is reported as “no death was observed”, the “number of dead mice by day 16” value ([2]; 3 mg/kg single intraperitoneal dose immediately after infection) is reported as 1 out of 11 and the “number of dead mice by day 16” value ([2]; 30 mg/kg single intraperitoneal dose immediately after infection) is reported as 1 out of 10.

For `CCCCCC(=O)OC1=CC(SC[C@H](NC(=O)CC[C@H](N)C(=O)O)C(=O)NCC(=O)O)CC1=O` (stereo partly drawn) [hexanoyl GM, 2-hexanoyloxy-4-glutathion-S-yl-2-cyclopenten-1-one], the “death after single oral administration” value [1] was “no death was observed”, the “induction of apoptosis (apoptosis corpuscles under an optical microscope)” value [3] was “apoptosis corpuscles were observed” and the “final concentration down to which an antiproliferation activity against tumor cells was clearly exhibited” value ([3]; HL-60, 48 hours, MTT, 2-fold serial dilutions of 8.3 mM solution) was at least 6.25 pm. The IC50 (HL-60 cells [4]; HL-60, 24 hours, 0.4% Trypan Blue) was 9.22 µM, the “selectivity of inhibition, topoisomerase II as compared with topoisomerase I” value (topoisomerase II) was “selective inhibitory activity on topoisomerase II” and the “concentration at which change of DNA from superhelical type to relaxed type was partially or completely inhibited” value (topoisomerase II; topoisomerase II (TopoGEN), pBR322 DNA, 37° C., 30 minutes) was at least 100 µM. For the same compound, the “concentration at which change of DNA from superhelical type to relaxed type was partially inhibited” value (topoisomerase I) was at least 1000 µM.

In the case of `O=C1C=CC(O)C1O` (stereo not drawn) [cyclopentenone, 4,5-dihydroxy-2-cyclopenten-1-one], the “death after single oral administration” value [5] is reported as “No death was observed” and the “number of dead mice by day 16” value ([2]; 1 mg/kg single intraperitoneal dose immediately after infection) is reported as 1 out of 11.

For `CC(C)(C)OC1C(=O)CC(SC[C@H](NC(=O)CC[C@H](N)C(=O)O)C(=O)NCC(=O)O)C1OC(C)(C)C` (stereo partly drawn) [di-t-butyl GD, 2,3-di-t-butoxy-4-glutathion-S-yl-1-cyclopentanone], the “death after single oral administration” value [1] was “no death was observed”, the “induction of apoptosis (apoptosis corpuscles under an optical microscope)” value [3] was “apoptosis corpuscles were observed” and the “final concentration down to which an antiproliferation activity against tumor cells was clearly exhibited” value ([3]; HL-60, MTT, 2-fold serial dilutions of 19 mM solution, air-dried in well) was at least 34 µM. The IC50 (HL-60 cells [4]; HL-60, 24 h) was 46.3 µM.

In the case of `Cc1c2oc3c(C)ccc(C(=O)N[C@@H]4C(=O)N[C@H](C(C)C)C(=O)N5CCC[C@H]5C(=O)N(C)CC(=O)N(C)[C@@H](C(C)C)C(=O)O[C@@H]4C)c3nc-2c(C(=O)N[C@@H]2C(=O)N[C@H](C(C)C)C(=O)N3CCC[C@H]3C(=O)N(C)CC(=O)N(C)[C@@H](C(C)C)C(=O)O[C@@H]2C)c(N)c1=O` [actinomycin D] (I: T[dV]P[Sar][NMeV] / II: T[dV]P[Sar][NMeV]; ester I:1-I:C, II:1-II:C; linker I:N-II:N via Actinocin(9to1)), the “apoptotic cells (FACScan)” value (HL-60 cells [6]) is reported as “observed” and the DNA fragmentation (HL-60 cells [7]) is reported as “observed”.
